Results on three molecules are retold here after patent US20260285847A1, “SYMMETRIC AMINOINDOLE-LINKED TRIAZINE FOR A DUAL EFFECT ON ALPHA-SYNUCLEIN AND TAU ISOFORM 2N4R FIBRILLIZATION” (Purdue Research Foundation, priority 2023, published 2026).

The target in one test is T1, alpha-synuclein (α-syn) (Homo sapiens, UniProt P37840).
T1 construct: purchased rPeptide
Put plainly: Thioflavin T (ThT) fluorescence assay of α-syn fibril formation. Type of test: biochemical. The settings on record: compound 100 μM. As for the experimental part: Thioflavin fluorescence assays. Thioflavin fluorescence assays were used to monitor fibril formation of recombinant α-syn, tau isoform 2N4R, treated with control DMSO and different compounds. Kinetics of α-syn fibrillization were performed using thioflavin T (ThT) as published previously.^32′ ^37 The fluorescence emission experiments were performed with the excitation and emission wavelengths set at 440 and 485 nm, respectively, with a Synergy HT multi-mode microplate reader (BioTek, Winooski, VT). Samples were measured in three replicates and the experiments were repeated three times using at least two different stock solutions. For each time point, arbitrary units of fluorescence were calculated from the mean values normalized against the maximum value in each completed assay. All results contained in FIG. 1 were presented as mean±SEM.
FIG. 1. Chemical structure, physicochemical descriptors, and the effect of compounds on alpha-synuclein (α-syn) aggregation measured as fluorescence intensity using ThT assay. TPSA, Log P, and Log D were obtained with SwissADME. BBB and pKa were obtained from the Blood-Brain Barrier Prediction Server (https://www.cbligand.org/BBB/) and Chemaxon, respectively. CNS MPO scores were assessed as published previously, The ThT (%) represent the maximum fluorescence intensity obtained at the plateau phase of the kinetics of fibrillization using 6.25 μM of α-syn. Compounds were tested at 100 μM (molar ratio 1:16). BBB, blood-brain barrier; C log D, calculated distribution coefficient at 7.4; C log P, calculated partition coefficient; CNS MPO, Central Nervous System Multi Parameter Optimization; HBA, Hydrogen Bond Acceptor; HBD, Hydrogen Bond Donor; LR5, Lipinski's rule of five; pKa, negative log of acid dissociation constant; ThT, Thioflavin T; TPSA, Topological polar surface area.

Test [1] deals with T2, tau isoform 2N4R (Homo sapiens, UniProt P10636).
T2 construct: made in house; host or cells: E. coli BL21(DE3)
T2 sequence (P10636 1-441 isoform P10636-8): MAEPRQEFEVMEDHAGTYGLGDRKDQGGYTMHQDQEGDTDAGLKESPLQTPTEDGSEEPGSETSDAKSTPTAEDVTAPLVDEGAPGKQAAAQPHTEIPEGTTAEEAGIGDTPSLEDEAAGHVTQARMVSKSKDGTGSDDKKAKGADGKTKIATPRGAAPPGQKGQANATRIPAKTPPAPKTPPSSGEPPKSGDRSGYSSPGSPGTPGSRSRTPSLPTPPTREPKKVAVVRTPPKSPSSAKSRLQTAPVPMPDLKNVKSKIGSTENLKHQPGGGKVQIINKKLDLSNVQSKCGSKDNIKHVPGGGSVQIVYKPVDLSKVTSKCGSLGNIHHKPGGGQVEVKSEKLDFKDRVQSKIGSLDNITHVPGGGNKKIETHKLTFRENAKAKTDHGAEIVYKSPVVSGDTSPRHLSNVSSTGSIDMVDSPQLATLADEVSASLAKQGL
In words: ThT fluorescence assay of tau isoform 2N4R fibril formation. Type of test: biochemical. The settings on record: compound 100 μM, tau 2N4R 6 μM, heparin 1.5 μM. As for the experimental part: (§1) Chemical and peptide source. DMSO and thioflavin-T (ThT) were purchased from Alfa Aesar (Ward Hill, MA). Procuration of recombinant α-syn was from rPeptide (WatKinsville, GA). The recombinant p-tau isoform 1N4R was prepared as published previously.^31, 36 Concerning the preparation of tau 2N4R, bacterial expression plasmid consisting of the vector pRK172 carrying a cDNA encoding the human Tau 2N4R isoform was a kind gift of Dr. David Eliezer (Weill Cornell Medicine). For protein expression, E. coli BL21(DE3) cells were transformed with the plasmid and grown in LB media supplemented with ampicillin (100 μg/mL). Protein over-expression was induced by the addition of 1 mM IPTG for 4 h at 37° C., and cells were pelleted by centrifugation at 6,000 g for 15 min at 4° C. The cells were resuspended in lysis buffer (20 mM MES, 400 mM NaCl, 0.2 mM MgCl2, 1 mM EGTA, protease inhibitor cocktail (P8340, Sigma Aldrich), 0.25 mg/mL lysozyme, and 1 μg/mL DNase I, pH 6.8) and lysed by a French press cell disruptor at 4° C., and the lysate was boiled for 20 min. Denatured proteins were pelleted by centrifugation at 30,000 g for 30 min at 4° C., and the supernatant was dialyzed overnight against cation exchange buffer (20 mM MES, 50 mM NaCl, 1 mM MgCl2, 1 mM EGTA, 2 mM DTT, 0.1 mM PMSF, pH 6.8). The dialysate was loaded onto a HiPrep SP HP column, and proteins were eluted with a linear gradient ranging from 50 mM to 1 M NaCl. Fractions containing tau isoform 2N4R were pooled, and the resulting protein solution was dialyzed against PBS (pH 7.4) and stored at −80° C.

Test [2] has as its target T3, α-syn (Homo sapiens, UniProt P37840).
T3 construct: purchased rPeptide
In words: PICUP cross-linking assay of α-syn oligomer formation. Type of test: biochemical. As to conditions: compound 50 μM; high molecular weight oligomers around 50 kDa. On the procedure:
PICUP is a technique in which oligomer formation is induced by cross-linking. To induce oligomerization by cross-linking, α-syn (from Rpeptide, LLC) and tau isoform 2N4R were diluted in 10 mM phosphate buffer (pH 7.4) to reach a final concentration of 10 μM. Different compounds were added to the protein solution at a final concentration of 50 μM, resulting in a molar ratio of 1:5. To confirm the gradual effect of compounds on the inhibition of α-syn oligomerization, compounds were tested at final concentration of 3.125, 6.25, 12.5, 25, and 50 μM. The controls consisted of samples without light exposition, without Ru(bpy) or ammonium persulfate, and without compound (i.e., 0.125% DMSO). The cross-linking reaction was initiated by the addition of 2 μL of Ru(bpy) (300 μM final concentration) and 2 μL ammonium persulfate (6 mM final concentration).^32 Samples were irradiated immediately. Light exposure was of a 1 second duration for α-syn and a 3 second duration for tau isoform 2N4R, with a 53 W (120 V) incandescent lamp installed in a homemade dark-box. Each tube contained a final volume of 20 μL. After irradiation, 8.3 μL of Laemmli loading buffer containing 15% 0-mercaptoethanol was immediately added to the solution, followed by incubation at 95° C. for 10 min. The cross-linked samples were separated on a 16% SDS-PAGE gel and visualized by Coomassie blue staining.

The target of test [3] is T2, tau isoform 2N4R. In words: PICUP cross-linking assay of tau oligomer formation. Type of test: biochemical. The settings on record: compound 50 μM; high molecular weight oligomers around 190 kDa. As for the experimental part: as §1
PICUP is a technique in which oligomer formation is induced by cross-linking. To induce oligomerization by cross-linking, α-syn (from Rpeptide, LLC) and tau isoform 2N4R were diluted in 10 mM phosphate buffer (pH 7.4) to reach a final concentration of 10 μM. Different compounds were added to the protein solution at a final concentration of 50 μM, resulting in a molar ratio of 1:5. […]

Test [4] concerns the target T3, α-syn. Put plainly: Transmission electron microscopy (TEM) of α-syn fibrils. The class given is biochemical. The settings on record: protein 60 μM, compound 600 μM (1:10), 24 hours at 37° C. On the procedure:
To confirm the general anti-fibrillar effect of compound 10, transmission electron microscopy (TEM) was used as an orthogonal assay. After incubating recombinant proteins (at 60 μM) with 600 μM compound 10 for 24 hours at 37° C., TEM was utilized to detect fibril formation.^32 A volume of 10 μL was applied on a 400-mesh Formvar-carbon-coated copper grid (Electron Microscopy Sciences, Hatfield, PA). The grids were incubated for 1 minute and washed three times with distilled water. They were carefully air-dried and incubated for 1 minute in a fresh solution of 1% uranyl acetate. Samples were air-dried and observed using a transmission microscope. Visualization of the grids was performed with transmission electron microscopy (JEOL 1400 Flash, Japan). Acquisition of pictures was performed with the following settings: accelerating voltage of 100 kV and magnification of 40k.

Test [5] addresses T2, tau isoform 2N4R. In words: TEM of tau isoform 2N4R fibrils. Type of test: biochemical. The settings on record: protein 60 μM, compound 600 μM (1:10), 24 hours at 37° C. As for the experimental part:
as §1
To confirm the general anti-fibrillar effect of compound 10, transmission electron microscopy (TEM) was used as an orthogonal assay. After incubating recombinant proteins (at 60 μM) with 600 μM compound 10 for 24 hours at 37° C., TEM was utilized to detect fibril formation.^32 A volume of 10 μL was applied on a 400-mesh Formvar-carbon-coated copper grid (Electron Microscopy Sciences, Hatfield, PA). The grids were incubated for 1 minute and washed three times with distilled water. […]

The subject of test [6] is M17D-TR/αS3K::YFP neuroblastoma cells. Put plainly: α-syn inclusion formation in dox-inducible neuroblastoma cells. Type of test: cell-based. On the procedure:
The dox-inducible neuroblastoma cell line M17D-TR/αS3K::YFP was used to evaluate the effect of compounds in preventing the formation of inclusion following induction with Dox. Dox-inducible neuroblastoma cells M17D-TR/αS-3K::YFP have been used previously. 96-well plates were used with cellular density of 30,000 cells per well. Compounds were added after 24 h and aS-3K::YFP transgene expression was induced […]. Induction was done by adding 1 μg per mL (final concentration) dox to culture media. Cells were incubated in the Incucyte Zoom 2000 platform (Essen Biosciences) and images (green, bright field) were taken continuously. Endpoint analysis of inclusion formation or growth was performed 48 h after induction (96 h after plating). The Incucyte processing definition ‘Inclusions’ was created as follows: Parameters, Fixed Threshold, Threshold (GCU) 50; Edge Split On, Edge Sensitivity 100; Cleanup, Hole Fill (μm^2): 10, Adjust Size (pixels): 0; Filters, Area (μm^2): max 50, Mean Intensity: min 60, Integrated Intensity: min 2000. […] As described previously for the evaluation of protein expression by SDS-PAGE and Western Blotting in the LiCor system, αS-specific monoclonal antibody 4B12 (Thermofisher, Waltham, MA; 1:1000) and a polyclonal antibody to GAPDH (Sigma-Aldrich, St. Louis, MO, G9545; 1:5000) were used.

Molecules are shown by their SMILES. “Also recorded” adds a separate entry of the source.

As to `c1cc(Oc2ncnc(Oc3cccc4[nH]ccc34)n2)c2cc[nH]c2c1` [Compound 7, 4-{[4-(1H-indol-4-yloxy)-1,3,5-triazin-2-yl]oxy}-1H-indole], the “inhibition of α-syn aggregation / fibril formation (in words)” value at alpha-synuclein (α-syn) (ThT assay) is “nonexistent anti-fibrillar activity; also recorded: weak effect on fibril formation”. Further, the “tau isoform 2N4R fibrillization (in words)” value at tau isoform 2N4R [1] is listed as “failed to reduce tau fibril formation”. Moreover, the “α-syn oligomer formation (PICUP, in words)” value at α-syn [2] is “did not reduce the formation of α-syn and tau oligomers”. Further, the “tau oligomer formation (PICUP, in words)” value on tau isoform 2N4R [3] was “did not reduce the formation of α-syn and tau oligomers”. Further, on α-syn [4], the “α-syn fibril ultrastructure (TEM)” value is listed as “packets of fine fibrils with a few spherical structures encountered on the grid”. Moreover, the “tau isoform 2N4R fibril ultrastructure (TEM)” value at tau isoform 2N4R [5] is reported as “fibrils surrounded by debris admixed with disrupted fibrils”. Moreover, the “α-syn expression levels (Western blot)” value in test [6] (compound 10 μM) is reported as “reduced”; in test [6] (compound 2.5 and 20 μM), “reduced”. Further, the “α-syn inclusion formation (punctate YFP signal, in words)” value in test [6] (compound 7: 2.5 to 20 μM, compound 10: 2.5 to 40 μM, readout 96 h after plating, vs 0.1% DMSO) is “very minimal changes in the numbers of inclusion”.
In the case of `Clc1nc(Nc2ccc3cc[nH]c3c2)nc(Nc2ccc3cc[nH]c3c2)n1` [Compound 24], the “ThT fluorescence intensity (FI), maximum at the plateau phase of α-syn fibrillization” value at alpha-synuclein (α-syn) (α-syn 6.25 μM (molar ratio 1:16), compared with DMSO control, mean±SEM, 100 µM) is on record as −0.3±0.5%.
For the molecule `c1cc(Nc2nc(Nc3cccc4[nH]ccc34)nc(Nc3cccc4[nH]ccc34)n2)c2cc[nH]c2c1` [Compound 25], the activity at 100 µM on alpha-synuclein (α-syn) (α-syn 6.25 μM (molar ratio 1:16), compared with DMSO control, mean±SEM, read-out: ThT fluorescence intensity (FI), maximum at the plateau phase of α-syn fibrillization) was found to be 21.5 ± 7.9%. Also, the “α-syn fibril ultrastructure (TEM)” value at α-syn [4] is “rare short fibrils”. On tau isoform 2N4R [5], the “tau isoform 2N4R fibril ultrastructure (TEM)” value is “medium size needle-shaped fibrils”.
